Test results from patent US20230104315A1, “METHOD OF IDENTIFYING EXTRACHROMOSOMAL DNA SIGNATURES” (Boundless Bio, Inc., priority 2020, published 2023).

Test system: SNU16 cells
Test: ecDNA copy number from exome data of SNU16 cells under sequential infigratinib and erlotinib treatment
Type: cell-based, human
Conditions: FIG. 19; for MYC and PDHX ecDNA copy numbers: 1 μM infigratinib up to 12 weeks, followed by 5 μM erlotinib up to four weeks; for EGFR ecDNA copy number: 1 μM infigratinib, followed by 5 μM erlotinib
Description: Exomes were prepared using Human Core Exome kit (Twist Bioscience) and sequenced on an Illumina platform with 2×150 paired-end read configuration.
Sequencing data was processed according to genome analysis tool kit (GATK) recommended practices (see gatk.groadinstitute.org/hc/en-us/articles/30035894731-Somatic-short-variant-discovery-SVNs-Indels-). Briefly, raw reads were aligned to the human genome (version GRCh37) using Burrows-Wheeler aligner (BWA) […] exact match (MEM). Small somatic variations were then extracted using Mutect2 (GATK v4.1.9.0) and filtered using FilterMutectCalls.
A culture of SNU16 cells was subjected to a sequence of treatments, starting with infigratinib and followed with erlotinib. Exome data was obtained from these cells at various time points during this experiment: before treatment with infigratinib, two weeks into treatment with 1 μM infigratinib, after 12 weeks of treatment with 1 μM infigratinib, before treatment with erlotinib, two weeks into treatment with 5 μM erlotinib, and four weeks into treatment with 5 μM erlotinib. VCF files produced by GATK Mutect2 were used to calculate rates of substitutions, insertions, and deletions in one million nucleotide-long genomic windows over the entire autosomal genome. Mean coverage depth was estimated by averaging depth for all mutations in that particular genomic window as reported in the VCF file.

Row | Structure (SMILES) | MYC and PDHX ecDNA copy numbers | EGFR ecDNA copy number | FGFR2 ecDNA copy number (during treatment with 1 μM infigratinib)
1 | CCN1CCN(c2ccc(Nc3cc(N(C)C(=O)Nc4c(Cl)c(OC)cc(OC)c4Cl)ncn3)cc2)CC1 [infigratinib] | mostly stable | dramatically increased | moderately decreased
2 | C#Cc1cccc(Nc2ncnc3cc(OCCOC)c(OCCOC)cc23)c1 [erlotinib] | mostly stable | went back down | –
